The assay relates to HBV. Put plainly: HBV-DNA Antiviral Assay Using HepG2.2.15 Cells (extracellular HBV DNA by qPCR). The format is cell-based, hepatitis B virus (HBV). Conditions: HBV DNA inhibition, HepG2.2.15 cells, extracellular HBV DNA by qPCR, read-out: EC50. Summed up: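 HepG2.2.15 cells were treated on day 1 with 8 concentrations (4-fold dilutions, duplicate; 0.5% DMSO), with compound-containing medium refreshed on day 4, at 37 °C. On day 7, supernatant HBV DNA was measured by qPCR against a plasmid standard curve, with inhibition normalised between DMSO and ETV controls. EC50/EC90 and CC50 (CellTiter-Glo ATP) came from variable-slope fits.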
On the technique in general: Real-time PCR tracks product formation cycle by cycle.

Each structure is given as a SMILES string. Where two headings read alike, the source gives them in different places. Bounds are passed on as bounds.

Three compounds from patent US12599582B2, “Pyrrole compounds” (ALIGOS THERAPEUTICS, INC., priority 2019, dated 2026) can be followed below.

Usually EC50 stands for the concentration at which the effect is half-maximal. As to `C#C[C@@](C)(CO)NC(=O)C(=O)c1c(C)c(C(=O)Nc2ccc(F)c(C(F)(F)F)c2)n(C)c1C` [Compound 66b, (S)—N-(4-fluoro-3-(trifluoromethyl)phenyl)-4-(2-((1-hydroxy-2-methylbut-3-yn-2-yl)amino)-2-oxoacetyl)-1,3,5-trimethyl-1H-pyrrole-2-carboxamide], the EC50 (Hepatitis B virus) was 1 to 10 nM.

Turning to `C#C[C@@H](NC(=O)C(=O)c1c(C)c(C(=O)Nc2ccc(F)c(C#N)c2)n(C)c1C)C1CC1` [Compound 23b, N-(3-cyano-4-fluoro-phenyl)-1,3,5-trimethyl-4-[2-oxo-2-[[(1S)-1-cyclopropylprop-2-ynyl]amino]acetyl]pyrrole-2-carboxamide], where the note is “Hepatitis B virus”, the EC50 is under 1 nM. For the compound `Cc1c(C(=O)C(=O)NC2(c3c[nH]nn3)COC2)c(C)n(C)c1C(=O)Nc1ccc(F)c(C#N)c1` [Compound 29, N-(3-cyano-4-fluoro-phenyl)-1,3,5-trimethyl-4-[2-oxo-2-[[3-(1H-triazol-4-yl)oxetan-3-yl]amino]acetyl]pyrrole-2-carboxamide], the EC50 was in the range of 1 to 10 nM.
